Experimental data published in patent publication US20220015372A1, “BIOLOGICALS AND THEIR USE IN PLANTS” (PIONEER HI-BRED INTERNATIONAL, INC., priority 2018, published 2022).

What was measured:
[1] = tested on: corn earworm (Helicoverpa zea; CEW); test: Medium-sized plant-based assay on bush bean, CEW; format: in vivo; set-up: key to insect live or dead: live=F; dead=K
Protocol: (§1) Broths A and B were tested against four insect species in medium insect test units; DBM, FAW, beet armyworm (Spodoptera exigua; BAW), and corn earworm (Helicoverpa zea; CEW). Test units were comprised of 70 cm^3 bases with 35 g of Woodstown Sandy Loam soil (Delmar, Del.) and mustard (Brassicae kaber; 6.5-7 cm), corn (Zea mays; 7-8 cm) or Bush bean (Phaseolus vulgaris; 6-7cm) as host plants for DBM, FAW and BAW, and CEW, respectively. Three concentrations of Broths A and B were tested: 0.25, 0.5 and 1×, with and without the surfactant X-77. Spinetoram was included as a positive control. Untreated controls were also included. Test units were sprayed with 1.2 mL of broth, in triplicate, and subsequently infested with approximately 15-20 stage 1 BAW or FAW larvae, or 30-40 neonate DBM or CEW. Units were kept in controlled conditions of 25° C./70% RH/16:8 h (L:D) photoperiod for six days and then scored. There are two scores given for each treatment, (1) plant damage rating from 0-10, with 0 being no damage and 10 being plant was completely consumed, and (2) insect live or dead (live=F; dead=K). The scores are averages of the three technical replicates. Any treatment with a plant damage score of 3 or less and an insect rating of K was considered to be active.

FAW = test: Medium-sized plant-based assay on corn, FAW; format: in vivo, Spodoptera frugiperda; set-up: key to insect live or dead: live=F; dead=K
Protocol: as §1

[2] = tested on: beet armyworm (Spodoptera exigua; BAW); test: Medium-sized plant-based assay on corn, BAW; format: in vivo; set-up: key to insect live or dead: live=F; dead=K
Protocol: as §1

[3] = tested on: corn earworm (Hehcoverpa zea); test: Lepidoptera diet-based feeding assay, CEW; format: in vivo, Helicoverpa zea; conditions: serial dilutions of Kings Medium fermentate (depsipeptide 55 ug/ml) in artificial diet
Protocol: (§2) Lepidopteran feeding assays (including FAW) were conducted on an artificial diet containing fermented broth in a 96 well plate set up. The broth was incorporated with multi-species Lepidopteran artificial diet (Southland Products Inc., Arkansas) in a ratio of 25 μl test sample and 35 μl of diet. Two to five neonate larvae were placed in each well to feed for 4 days. Results were expressed as positive for larvae reactions such as stunting and/or mortality. Results were expressed as negative if the larvae were similar to the negative control that is fed diet to which the above control broth only has been applied.

[4] = tested on: European corn borer (ECB, Ostrinia nubilalis); test: Lepidoptera diet-based feeding assay, ECB; format: in vivo; conditions: serial dilutions of Kings Medium fermentate (depsipeptide 55 ug/ml) in artificial diet
Protocol: as §2

[5] = tested on: Fall Armyworm (FAW, Spodoptera frugiperda); test: Lepidoptera diet-based feeding assay, FAW; format: in vivo; conditions: serial dilutions of Kings Medium fermentate (depsipeptide 55 ug/ml) in artificial diet
Protocol: as §2

[6] = tested on: Western Corn Rootworm (WCRW, Diabrotica virgifera virgifera); test: Coleoptera diet based feeding assay, WCRW; format: in vivo; conditions: serial dilutions of Kings Medium fermentate (depsipeptide 55 ug/ml) in artificial diet
Protocol: Western Corn Rootworm (WCRW, Diabrotica virgifera virgifera) bioassays were conducted in a 96 well plate format, mixing 10 μl of test sample with 50 μl molten modified Southern Corn Rootworm diet (Frontier Agricultural Sciences, diet F9800B). WCRW neonates were placed into each well before heat sealed with a Mylar film. Holes are punched in the film to allow air exchange. The assay was run four days at 25° C. in the dark. The plates were then scored for insect mortality and stunting of insect growth. The scores were noted as dead, severely stunted (little or no growth but alive), stunted (growth but not equivalent to controls) or no activity.

[7] = tested on: soybean looper (SBL, Pseudoplusia includens); test: Lepidoptera diet-based feeding assay, SBL; format: in vivo; conditions: serial dilutions of Kings Medium fermentate (depsipeptide 55 ug/ml) in artificial diet
Protocol: as §2

[8] = 0.1 ppm, Table 3 assay without X-77, six days
[9] = 0.1 ppm, Table 4 assay with X-77, six days
[10] = 0.2 ppm, Table 3 assay without X-77, six days
[11] = 0.2 ppm, Table 4 assay with X-77, six days
[12] = 2 ppm, Table 3 assay without X-77, six days
[13] = 2 ppm, Table 4 assay with X-77, six days

Spinetoram
K: insect live or dead [1, 8] | insect live or dead [1, 9] | insect live or dead [1, 10] | insect live or dead [1, 11] | insect live or dead [1, 12] | insect live or dead [1, 13] | insect live or dead (FAW; [10]) | insect live or dead (FAW; [11]) | insect live or dead (FAW; [12]) | insect live or dead (FAW; [13]) | insect live or dead [2, 12]
F: insect live or dead (FAW; [8]) | insect live or dead (FAW; [9]) | insect live or dead [2, 8] | insect live or dead [2, 9] | insect live or dead [2, 10] | insect live or dead [2, 11] | insect live or dead [2, 13]
5: plant damage rating from 0-10 (FAW; [8]) | plant damage rating from 0-10 (FAW; [9])
4: plant damage rating from 0-10 [2, 10] | plant damage rating from 0-10 [2, 11] | plant damage rating from 0-10 [2, 13]
7: plant damage rating from 0-10 [2, 8] | plant damage rating from 0-10 [2, 9]
0: plant damage rating from 0-10 [1, 12] | plant damage rating from 0-10 [1, 13] | plant damage rating from 0-10 (FAW; [12]) | plant damage rating from 0-10 (FAW; [13]) | plant damage rating from 0-10 [2, 12]
1: plant damage rating from 0-10 [1, 8] | plant damage rating from 0-10 [1, 9] | plant damage rating from 0-10 [1, 10] | plant damage rating from 0-10 [1, 11] | plant damage rating from 0-10 (FAW; [10]) | plant damage rating from 0-10 (FAW; [11])

FR901375 [depsipeptide]
11 ppm: minimal dose to achieve 100% mortality [3]
2 ppm: minimal dose to achieve 100% mortality [4]
2 pmm: minimal dose to achieve 100% mortality [5]
1 ppm: minimal dose to achieve 100% mortality [7]
23 ppm: minimal dose to achieve 100% mortality [6]
